Test results as given in patent publication US12398121B2 (Nuvation Bio Inc., priority 2018, dated 2025).

Experiments:
Format in all cases: cell-based
LNCaP cells = assay: Cell proliferation assay (CellTiter Glo), LNCaP; conditions: Homo sapiens, 168 h, read-out: LNCaP IC50
Description: (§1) IC50 values were calculated and graphed using the model “log(inhibitor) vs. response—Variable slope” included in GraphPad Prism 5 (San Diego, CA). The Ki values were further calculated using the equation below where [L] was the radioligand concentration (1 nM) using in this study. Kd value was 0.332 nM. Ki=IC50/(1+[L]/Kd) c. AR transactivation: Human AR cloned into a CMV vector backbone was used for the transactivation study. HEK-293 cells were plated at 80,000 cells per well of a 24 well plate in DME+5% csFBS. Twenty four hours later, the cells were transfected using Lipofectamine (Invitrogen, Carlsbad, CA) with 0.25 μg GRE-LUC, 0.01 μg CMV-LUC (renilla luciferase) and 25 ng of the AR in OPTIMEM medium. The cells were treated 24 hrs after transfection with various ligands (10^−12 to 10^−5 M final concentrations) and luciferase assay were performed 48 hours after transfection. Firefly values were normalized to renilla luciferase values and the values were represented as relative light units (RLU). Agonist and antagonist assays for the test article were performed in the absence and in the combination with 0.1 nM R1881, respectively. Data were represented as EC50 (for agonists) and IC50 (for antagonists) obtained from four parameter logistics curve. Cell culture and proliferation assays: LNCaP, PC-3, 22RV1, MCF-7, HT-29, and HCT-116 cells were procured from American Type Culture Collection (ATCC). Cells were cultured in medium recommended by the ATCC. Cell culture medium was obtained from Fisher scientific (Waltham, MA) and serum was obtained from Hyclone (San Angelo, TX).
Cells were plated at varying density in the respective growth medium in 96 well plates. 24 hr later, cells were treated, in triplicate or quadruplicate, with test articles prepared in a range of concentrations by series dilution of DMSO stock solutions in growth medium and incubated for three to seven days. The number of viable 22RV1 and HT-29 cells was measured using CellTiter Glo assay (CTG, Promega, Madison, WI) after three days of treatment. The other types of cancer cells were re-treated at three or four days and the number of viable cells was measured using CTG assay after a total treatment time of six or seven days. Cell viability data were plotted using GraphPad Prism (GraphPad Software, Inc., San Diego, CA). In addition, a nonlinear regression model with a sigmoidal dose response and variable slope within GraphPad Prism was used to calculate the IC50 value of individual test articles. Additional cell proliferation assays: Other cancer cell lines are tested in a cell proliferation assay. For example, SK-OV-3 or OVCAR3 ovarian cancer cells are tested. Cells are cultured in medium recommended by the supplier (e.g., ATCC or JCRB Cell Bank), at 37° C. in a 5% CO2 environment. For the proliferation assay, cells are plated in the growth medium in 96 well plates. Seeding density is adjusted according to the cell type. 24 hr later, cells are treated, in triplicate or quadruplicate, with test articles prepared in a range of concentrations by series dilution of DMSO stock solutions in growth medium, and typically incubated for three to seven days, with test article-containing medium replaced after three or four days. The number of viable cells is measured using CellTiter Glo assay (CTG, Promega, Madison, WI) or similar. Cell viability data are plotted using GraphPad Prism (GraphPad Software, Inc., San Diego, CA). […]

PC-3 cells = assay: Cell proliferation assay (CellTiter Glo), PC-3; conditions: Homo sapiens, PC-3, 168 h, read-out: PC-3 IC50
Description: as §1
(§2) Cells were plated at varying density in the respective growth medium in 96 well plates. 24 hr later, cells were treated, in triplicate or quadruplicate, with test articles prepared in a range of concentrations by series dilution of DMSO stock solutions in growth medium and incubated for three to seven days. The number of viable 22RV1 and HT-29 cells was measured using CellTiter Glo assay (CTG, Promega, Madison, WI) after three days of treatment. The other types of cancer cells were re-treated at three or four days and the number of viable cells was measured using CTG assay after a total treatment time of six or seven days. Cell viability data were plotted using GraphPad Prism (GraphPad Software, Inc., San Diego, CA). In addition, a nonlinear regression model with a sigmoidal dose response and variable slope within GraphPad Prism was used to calculate the IC50 value of individual test articles. Additional cell proliferation assays: Other cancer cell lines are tested in a cell proliferation assay. For example, SK-OV-3 or OVCAR3 ovarian cancer cells are tested. […] The number of viable cells is measured using CellTiter Glo assay (CTG, Promega, Madison, WI) or similar. […]

HCT-116 cells = assay: Cell proliferation assay (CellTiter Glo), HCT-116; conditions: Homo sapiens, HCT-116, 168 h, read-out: HCT-116 IC50
Description: as §1, §2

Human AR = biological target: T1, Human AR (Homo sapiens, UniProt P10275); assay: AR transactivation (antagonist mode, GRE-LUC luciferase in HEK-293 cells); conditions: in combination with 0.1 nM R1881, read-out: AR Ant. IC50
T1 construct: expressed in transfected cells; host or cells: HEK-293
T1 sequence (P10275 1-920): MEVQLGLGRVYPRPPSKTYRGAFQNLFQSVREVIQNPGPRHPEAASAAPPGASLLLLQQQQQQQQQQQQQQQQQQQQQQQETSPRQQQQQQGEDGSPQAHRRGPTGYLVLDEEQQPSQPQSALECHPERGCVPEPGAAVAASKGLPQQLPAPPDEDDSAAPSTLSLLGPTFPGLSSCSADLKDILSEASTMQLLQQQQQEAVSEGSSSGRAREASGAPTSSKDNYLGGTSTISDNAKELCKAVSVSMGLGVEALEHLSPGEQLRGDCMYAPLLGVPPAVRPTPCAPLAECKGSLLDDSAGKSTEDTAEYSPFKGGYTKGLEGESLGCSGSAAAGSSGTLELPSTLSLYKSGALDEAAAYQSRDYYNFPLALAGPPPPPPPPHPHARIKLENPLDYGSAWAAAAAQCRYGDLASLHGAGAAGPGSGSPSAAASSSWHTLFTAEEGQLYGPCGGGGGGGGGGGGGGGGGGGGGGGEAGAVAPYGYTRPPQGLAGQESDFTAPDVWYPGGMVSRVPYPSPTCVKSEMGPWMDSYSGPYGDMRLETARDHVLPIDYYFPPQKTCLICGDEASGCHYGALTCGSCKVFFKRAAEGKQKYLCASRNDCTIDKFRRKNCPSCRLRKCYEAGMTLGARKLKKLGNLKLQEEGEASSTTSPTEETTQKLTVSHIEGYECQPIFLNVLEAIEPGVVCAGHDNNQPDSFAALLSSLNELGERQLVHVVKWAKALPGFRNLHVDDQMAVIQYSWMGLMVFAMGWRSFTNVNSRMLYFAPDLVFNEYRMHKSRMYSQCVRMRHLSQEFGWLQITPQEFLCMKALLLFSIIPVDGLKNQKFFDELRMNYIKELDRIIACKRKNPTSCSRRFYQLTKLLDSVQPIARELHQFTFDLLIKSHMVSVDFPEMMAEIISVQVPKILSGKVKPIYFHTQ
Description: as §1

MCF-7 cells = assay: Cell proliferation assay (CellTiter Glo), MCF-7; conditions: Homo sapiens, MCF7, 168 h; cell growth inhibition, six or seven days total treatment
Description: as §1
Cells were plated at varying density in the respective growth medium in 96 well plates. […] The number of viable 22RV1 and HT-29 cells was measured using CellTiter Glo assay (CTG, Promega, Madison, WI) after three days of treatment. The other types of cancer cells were re-treated at three or four days and the number of viable cells was measured using CTG assay after a total treatment time of six or seven days. […] The number of viable cells is measured using CellTiter Glo assay (CTG, Promega, Madison, WI) or similar. […]

Structure (SMILES)	IC50 (Human AR) [nM]	IC50 (MCF-7 cells) [nM]	also measured
C[C@]12CCC(=O)C[C@@H]1CC[C@@H]1[C@@H]2CC[C@]2(C)[C@@H](OCCCCCC(=O)N3CCN(C(=O)c4cc(Cc5n[nH]c(=O)c6ccccc56)ccc4F)CC3)CC[C@@H]12 [Compound 1.2, 4-(3-(4-(6-(((5S,8R,9S,10S,13S,14S,17S)-10,13-dimethyl-3-oxohexadecahydro-1H-cyclopenta[a]phenanthren-17-yl)oxy)hexanoyl)piperazine-1-carbonyl)-4-fluorobenzyl)phthalazin-1(2H)-one]	–	–	IC50 (LNCaP cells): 790 nM; IC50 (PC-3 cells): 240 nM; IC50 (HCT-116 cells): 110 nM
C[C@](O)(CS(=O)(=O)c1ccc(NCCCCCC(=O)N2CCN(C(=O)c3cc(Cc4n[nH]c(=O)c5ccccc45)ccc3F)CC2)cc1)C(=O)Nc1ccc(C#N)c(C(F)(F)F)c1 [Compound 1.68, (R)-N-(4-cyano-3-(trifluoromethyl)phenyl)-3-(4-(6-(4-(2-fluoro-5-((4-oxo-3,4-dihydrophthalazin-1-yl)methyl)benzoyl)piperazin-1-yl)-6-oxohexylamino)phenylsulfonyl)-2-hydroxy-2-methylpropanamide]	3300	–	–
CC1(C)C(=O)N(c2ccc(C#N)c(C(F)(F)F)c2)C(=S)N1c1ccc(C(=O)NCCCCCC(=O)N2CCN(C(=O)c3cc(Cc4n[nH]c(=O)c5ccccc45)ccc3F)CC2)c(F)c1 [Compound 1.1, 4-(3-(4-cyano-3-(trifluoromethyl)phenyl)-5,5-dimethyl-4-oxo-2-thioxoimidazolidin-1-yl)-2-fluoro-N-(6-(4-(2-fluoro-5-((4-oxo-3,4-dihydrophthalazin-1-yl)methyl)benzoyl)piperazin-1-yl)-6-oxohexyl)benzamide]	33	–	IC50 (LNCaP cells): 590 nM; IC50 (PC-3 cells): 50 nM; IC50 (HCT-116 cells): 310 nM
O=C(c1ccc(OCCN2CCN(C(=O)c3cc(Cc4n[nH]c(=O)c5ccccc45)ccc3F)CC2)cc1)c1c(-c2ccc(O)cc2)sc2cc(O)ccc12 [Compound 2.13, 4-(4-fluoro-3-(4-(2-(4-(6-hydroxy-2-(4-hydroxyphenyl)benzo[b]thiophene-3-carbonyl)phenoxy)ethyl)piperazine-1-carbonyl)benzyl)phthalazin-1(2H)-one]	–	3600	–
CCC(=C(c1ccc(O)cc1)c1ccc(OCCN2CCN(C(=O)c3cc(Cc4n[nH]c(=O)c5ccccc45)ccc3F)CC2)cc1)c1ccccc1 [Compound 2.14, 4-(4-fluoro-3-(4-(2-(4-(1-(4-hydroxyphenyl)-2-phenylbut-1-enyl)phenoxy)ethyl)piperazine-1-carbonyl)benzyl)pthalazin-1(2H)-one]	–	9300	–
CC1(C)C(=O)N(c2ccc(C#N)c(C(F)(F)F)c2)C(=S)N1c1ccc(C(=O)NCCCCCCNCc2ccc(-c3[nH]c4cc(F)cc5c4c3CCNC5=O)cc2)c(F)c1 [Compound 1.5, 4-(3-(4-cyano-3-(trifluoromethyl)phenyl)-5,5-dimethyl-4-oxo-2-thioxoimidazolidin-1-yl)-2-fluoro-N-(6-((4-(8-fluoro-1-oxo-2,3,4,6-tetrahydro-1H-azepino[5,4,3-cd]indol-5-yl)benzyl)amino)hexyl)benzamide]	750	–	–
CN(CCCCCC(=O)N1CCN(C(=O)c2cc(Cc3n[nH]c(=O)c4ccccc34)ccc2F)CC1)CCOc1ccc(C(=O)c2c(-c3ccc(O)cc3)sc3cc(O)ccc23)cc1 [Compound 2.4, 4-(4-fluoro-3-(4-(6-((2-(4-(6-hydroxy-2-(4-hydroxyphenyl)benzo[b]thiophene-3-carbonyl)phenoxy)ethyl)(methyl)amino)hexanoyl)piperazine-1-carbonyl)benzyl)phthalazin-1(2H)-one]	–	11000	–
